Target: T1, stearoyl-CoA desaturase (SCD) (Rattus norvegicus, UniProt P07308)
T1 construct: from tissue; host or cells: liver microsomes of male Sprague Dawley rats, with SCD induced by a carbohydrate-rich diet after fasting/feeding cycles
T1 sequence (P07308 1-358): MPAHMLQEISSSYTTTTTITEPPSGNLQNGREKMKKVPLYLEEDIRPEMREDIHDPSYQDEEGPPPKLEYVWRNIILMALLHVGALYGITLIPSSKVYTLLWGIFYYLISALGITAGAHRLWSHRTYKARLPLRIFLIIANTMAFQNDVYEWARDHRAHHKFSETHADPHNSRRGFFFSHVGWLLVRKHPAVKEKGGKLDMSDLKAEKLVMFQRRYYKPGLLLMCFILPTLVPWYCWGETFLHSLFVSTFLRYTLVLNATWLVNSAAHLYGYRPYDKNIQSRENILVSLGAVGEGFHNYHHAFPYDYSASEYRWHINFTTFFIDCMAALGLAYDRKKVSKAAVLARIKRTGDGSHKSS
Experiment: SCD assay in rat liver microsomes ([3H]stearoyl CoA desaturation, adapted from Talamo and Bloch)
Type: biochemical
Conditions: rat liver microsomes 0.2 mg/ml assay final, 30 min preincubation, 45 min reaction, room temperature
Description: The identification of compounds of the invention as SCD inhibitors was readily accomplished using the SCD enzyme and microsomal assay procedure described in Talamo and Bloch (1969) Analytical Biochemistry 29:300-304.
The rat liver microsomes were collected according to the procedure described in Ozols (1990) Methods Enzm, 182:225.
Male Spraque Dawley Rats were placed on regimented fasting protocol for one week to stimulate SCD enzymatic activity. 48-hour periods were alternated between feeding and fasting to induce and down-regulate SCD activity with SCD activity being induced via carbohydrate rich diet prior to liver perfusion and collection.
The rats were anesthetized with Isoflurane inhalation anesthetic, the liver perfused with cold phosphate buffered saline (PBS), weighed, and chilled in cold homogenization buffer (250 mM sucrose, 10 mM Tris, 1 mM EDTA, pH 7.6.
The livers were finely minced and placed in homogenization tube. 40 mL of homogenization buffer was added to the homogenization tube and the liver homogenized and centrifuged in a pre-chilled […] for 10 min at 4° C.
Following centrifugation, the supernatant was collected and the pellet removed and discarded. The supernatant was centrifuge at 10,000 G for 35 minutes. Following centrifugation, the supernatant was collect and the pellet discarded. The supernatant was then centrifuged in a pre-chilled 45-Ti rotor at 130,000 G (41,000 RPM) for 90 minutes at 4° C.
The supernatant was then aspirated off and the collected microsomal pellet washed in 25 mL of Glycerol PBS (1×PBS 7.4, 20% Glycerol) and resuspended in 4-5 volumes of Glycerol PBS.
The protein concentration of the microsomal preparation was determined by BCA assay (Pierce) and the microsomes were aliquoted and stored at −80° C.
Biobeads were ground to a smaller size in a mortar and pestle and resuspended in 3.6% TCA. The beads were then filtered through […] mesh.
SCD was determined in the desaturase assay buffer. This assay buffer contained 0.1 M Tris buffer, pH 7.2, 2 mM NADH, 4.8 mM ATP, 0.5 mM CoA, 4.8 mM MgCl2, and 0.1% BSA.
The Procedure for the SCD Assay (Adapted from Talamo and Bloch (1969) Analytical Biochemistry 29:300-304)
1 μl of each compound of Formula I was added to an assay plate by a low volume (0.5-10 μL) multichannel pipette. A DMSO control was also prepared. The microsomes were quickly thawed and added to assay buffer so that a concentration of 0.4 mg/ml was achieved (0.2 mg/ml assay final). 50 μl of the microsome suspension in assay buffer was then added into each well in the compound assay plate, the plate was covered, and the microsomes preincubated with the compounds for 30 minutes on the orbital shaker, 50-75 rpm, at room temperature.
After preincubation, the reaction was initiated by the addition of 50 μl of substrate solution (20 μM Stearoyl CoA, [3H]Stearoyl CoA, 74 nCi) to the preincubated microsomes/compound suspensions in MilliQ (Millipore) H2O. The reaction mixtures were then incubated for 45 minutes on the orbital shaker at 50-75 rpm at room temperature.
The reaction was terminated by the addition of 10 μl of 21% […] (TCA) to the reaction mixture followed incubation on the orbital shaker for 30 minutes at 50-75 rpm at room temperature followed by centrifugation for 5 minutes at 3700 rpm.
50 μl of a 6% Bio-Bead suspension in H2O was added to the reaction mixture and the assay plate was sealed. The Bio-Bead mixture was incubated on the orbital shaker for 1 hour, 100-150 rpm at room temperature, and then the mixture was centrifuged at 2000 g for 5 minutes to pellet the Bio-Beads.
25 μl of the supernatant was harvested from each well and transferred to a detection plate. 100 μl of OptiPhase SuperMix scinitillation cocktail (containing sufficient NaOH to neutralize the TCA) was added and the solutions mixed by vigorous shaking (300-400 rpm) for 5 minutes at room temperature. […]

| Structure (SMILES) | IC50 |
| --- | --- |
| CC(=O)NCCn1c(=O)c(-c2cccs2)nc2cnc(NCc3ccc(F)c(F)c3)nc21 [Compound 19, N-[2-(2-{[(3,4-difluorophenyl)methyl]amino}-7-oxo-6-(2-thienyl)-8-hydropteridin-8-yl)ethyl]acetamide] | 3400 nM |
| CCCC(=O)NCCn1c(=O)c(-c2ccc(OC)cc2)nc2cnc(NCc3ccc(Cl)c(Cl)c3)nc21 [Compound 5, N-[2-(2-{[(3,4-dichlorophenyl)methyl]amino}-6-(4-methoxyphenyl)-7-oxo-8-hydropteridin-8-yl)ethyl]butanamide] | 18000 nM |
| CC(=O)NCCn1c(=O)c(-c2cccnc2)nc2cnc(NCc3ccc(F)cc3)nc21 [Compound 11, N-[2-(2-{[(4-fluorophenyl)methyl]amino}-7-oxo-6-(3-pyridyl)-8-hydropteridin-8-yl)ethyl]acetamide] | 5700 nM |
| COc1ccc(-c2nc3cnc(NCc4ccc(Cl)c(Cl)c4)nc3n([C@@H]3CCNC3)c2=O)cc1 [Compound 3, 8-((3R)pyrrolidin-3-yl)-2-{[(3,4-dichlorophenyl)methyl]amino}-6-(4-methoxyphenyl)-8-hydropteridin-7-one] | 5000 nM |
| CC(=O)NCCn1c(=O)cnc2cnc(NCc3cccc(Cl)c3)nc21 [Compound 25, N-[2-(2-{[(3-chlorophenyl)methyl]amino}-7-oxo-8-hydropteridin-8-yl)ethyl]acetamide] | 10000 nM |
| COc1ccc(-c2nc3cnc(NCc4ccc(Cl)c(Cl)c4)nc3n(CCNC(=O)c3ccco3)c2=O)cc1 [Compound 31, N-[2-(2-{[(3,4-dichlorophenyl)methyl]amino}-6-(4-methoxyphenyl)-7-oxo(8-hydropteridin-8-yl))ethyl]-2-furylcarboxamide] | 2260 nM |
| CC(=O)NCCn1c(=O)cnc2cnc(NCc3ccc(Cl)cc3)nc21 [Compound 28, N-[2-(2-{[(4-chlorophenyl)methyl]amino}-7-oxo-8-hydropteridin-8-yl)ethyl]acetamide] | 21900 nM |
| O=c1c(-c2cccnc2)nc2cnc(NCc3ccc(Cl)c(Cl)c3)nc2n1CCn1cncn1 [Compound 15, 2-{[(3,4-dichlorophenyl)methyl]amino}-6-(3-pyridyl)-8-(2-(1,2,4-triazolyl)ethyl)-8-hydropteridin-7-one] | 5800 nM |
| COc1ccc(-c2nc3cnc(NCc4ccc(Cl)c(Cl)c4)nc3n(CCNS(C)(=O)=O)c2=O)cc1 [Compound 2, 2-{[(3,4-dichlorophenyl)methyl]amino}-6-(4-methoxyphenyl)-8-{2-[(methylsulfonyl)amino]ethyl}-8-hydropteridin-7-one] | 2800 nM |
| O=C(NCCn1c(=O)c(-c2cccnc2)nc2cnc(NCc3ccc(Cl)c(Cl)c3)nc21)c1ccccc1 [Compound 36, N-[2-(2-{[(3,4-dichlorophenyl)methyl]amino}-7-oxo-6-(3-pyridyl)(8-hydropteridin-8-yl))ethyl]benzamide] | 4060 nM |
| CC(=O)NCCn1c(=O)c(-c2cccnc2)nc2cnc(NCc3ccccc3)nc21 [Compound 9, N-(2-{7-oxo-2-[benzylamino]-6-(3-pyridyl)-8-hydropteridin-8-yl}ethyl)acetamide] | 2600 nM |
| COc1ccc(-c2nc3cnc(NCc4ccc(Cl)c(Cl)c4)nc3n(CCNC(=N)N)c2=O)cc1 [Compound 16, amino[2-(2-{[(3,4-dichlorophenyl)methyl]amino}-6-(4-methoxyphenyl)-7-oxo(8-hydropteridin-8-yl))ethyl]carboxamidine] | 11000 nM |
| O=C(NCCn1c(=O)cnc2cnc(NCc3ccc(Cl)c(Cl)c3)nc21)c1ccsc1 [Compound 35, N-[2-(2-{[(3,4-dichlorophenyl)methyl]amino}-7-oxo(8-hydropteridin-8-yl))ethyl]-3-thienylcarboxamide] | 6120 nM |
| CC(=O)NCCn1c(=O)c(-c2cccnc2)nc2cnc(NCc3cccc(Cl)c3)nc21 [Compound 27, N-[2-(2-{[(3-chlorophenyl)methyl]amino}-7-oxo-6-(3-pyridyl)-8-hydropteridin-8-yl)ethyl]acetamide] | 9100 nM |

Continued, values first:

| IC50 | Structure (SMILES) |
| --- | --- |
| 1800 nM | COCC(=O)NCCn1c(=O)c(-c2ccc(OC)cc2)nc2cnc(NCc3ccc(Cl)c(Cl)c3)nc21 [Compound 8, N-[2-(2-{[(3,4-dichlorophenyl)methyl]amino}-6-(4-methoxyphenyl)-7-oxo(8-hydropteridin-8-yl))ethyl]-2-methoxyacetamide] |
| 470 nM | COc1ccc(-c2nc3cnc(NCc4ccc(Cl)c(Cl)c4)nc3n(CCNC(=O)c3ccsc3)c2=O)cc1 [Compound 23, N-[2-(2-{[(3,4-dichlorophenyl)methyl]amino}-6-(4-methoxyphenyl)-7-oxo(8-hydropteridin-8-yl))ethyl]-3-thienylcarboxamide] |
| 2100 nM | CC(=O)NCCn1c(=O)c(C(F)(F)F)nc2cnc(NCc3ccc(Cl)c(Cl)c3)nc21 [Compound 13, N-[2-(2-{[(3,4-dichlorophenyl)methyl]amino}-7-oxo-6-(trifluoromethyl)-8-hydropteridin-8-yl)ethyl]acetamide] |
| 2210 nM | COc1ccc(-c2nc3cnc(NCc4ccc(Cl)c(Cl)c4)nc3n(CCNC(C)=O)c2=O)cc1F [Compound 22, N-[2-(2-{[(3,4-dichlorophenyl)methyl]amino}-6-(3-fluoro-4-methoxyphenyl)-7-oxo-8-hydropteridin-8-yl)ethyl]acetamide] |
| 1180 nM | O=C(NCCn1c(=O)c(-c2cccnc2)nc2cnc(NCc3ccc(Cl)c(Cl)c3)nc21)c1ccc(F)cc1 [Compound 38, N-[2-(2-{[(3,4-dichlorophenyl)methyl]amino}-7-oxo-6-(3-pyridyl)(8-hydropteridin-8-yl))ethyl](4-fluorophenyl)carboxamide] |
| 2000 nM | CC(=O)NCCn1c(=O)c(-c2cccs2)nc2cnc(NCc3ccc(Cl)c(Cl)c3)nc21 [Compound 14, N-[2-(2-{[(3,4-dichlorophenyl)methyl]amino}-7-oxo-6-(2-thienyl)-8-hydropteridin-8-yl)ethyl]acetamide] |
| 2250 nM | COc1ccc(-c2nc3cnc(NCc4ccc(Cl)c(Cl)c4)nc3n(CCNC(=O)c3cccc(F)c3)c2=O)cc1 [Compound 42, N-[2-(2-{[(3,4-dichlorophenyl)methyl]amino}-6-(4-methoxyphenyl)-7-oxo(8-hydropteridin-8-yl))ethyl](3-fluorophenyl)carboxamide] |
| 230 nM | CC(=O)NCCn1c(=O)c(-c2cccnc2)nc2cnc(NCc3ccc(Cl)c(Cl)c3)nc21 [Compound 12, N-[2-(2-{[(3,4-dichlorophenyl)methyl]amino}-7-oxo-6-(3-pyridyl)-8-hydropteridin-8-yl)ethyl]acetamide] |
| 1600 nM | COc1ccc(-c2nc3cnc(NCc4ccc(Cl)c(Cl)c4)nc3n(CCNC(=O)c3cccnc3)c2=O)cc1 [Compound 4, N-[2-(2-{[(3,4-dichlorophenyl)methyl]amino}-6-(4-methoxyphenyl)-7-oxo(8-hydropteridin-8-yl))ethyl]-3-pyridylcarboxamide] |
| 1890 nM | CC(=O)NCCn1c(=O)c(-c2ccc(Cl)cc2)nc2cnc(NCc3ccc(Cl)c(Cl)c3)nc21 [Compound 32, N-[2-(2-{[(3,4-dichlorophenyl)methyl]amino}-6-(4-chlorophenyl)-7-oxo-8-hydropteridin-8-yl)ethyl]acetamide] |

Reference: US7662819B2, “Pteridinone derivatives for use as stearoyl CoA desaturase inhibitors” (Gilead Palo Alto, Inc., priority 2007, dated 2010)
